Laboratory results reported in patent US6686382B2, “Sulfonamides and derivatives thereof that modulate the activity of endothelin” (Encysive Pharmaceuticals Inc., priority 1999, dated 2004).

Tests used:
human ETA receptors = target: T1, human ETA receptors (Homo sapiens, UniProt P25101); experiment: Endothelin binding inhibition, Binding Test #1: inhibition of binding to ETA receptors (TE 671 cell membranes); conditions: relative to N-(4-chloro-3-methyl-5-isoxazolyl)-2-{[3,4-(methylenedioxy)-6-methylphenyl)acetyl]-thiophene-3-sulfonamide (= 1.0)
T1 construct: endogenous in cells; host or cells: TE 671 cells (ATCC HTB 139), membrane preparation
T1 sequence (P25101 21-427): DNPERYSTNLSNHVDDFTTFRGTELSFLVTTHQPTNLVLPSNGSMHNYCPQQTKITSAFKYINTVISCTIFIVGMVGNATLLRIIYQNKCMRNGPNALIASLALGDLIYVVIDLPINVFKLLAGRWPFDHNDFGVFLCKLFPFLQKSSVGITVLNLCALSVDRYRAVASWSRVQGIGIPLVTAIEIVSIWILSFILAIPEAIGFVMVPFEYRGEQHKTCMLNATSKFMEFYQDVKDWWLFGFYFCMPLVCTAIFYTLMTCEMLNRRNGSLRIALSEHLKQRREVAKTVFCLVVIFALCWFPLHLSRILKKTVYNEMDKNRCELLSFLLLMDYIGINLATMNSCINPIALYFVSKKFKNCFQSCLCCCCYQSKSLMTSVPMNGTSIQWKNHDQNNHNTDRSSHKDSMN
Excerpt: Compounds that are potential endothelin antagonists are identified by testing their ability to compete with ^125I-labeled ET-1 for binding to human ETA receptors or ETB receptors present on isolated cell membranes. The effectiveness of the test compound as an antagonist or agonist of the biological tissue response of endothelin can also be assessed by measuring the effect on endothelin induced contraction of isolated rat thoracic aortic rings. The ability of the compounds to act as antagonists or agonists for ETB receptors can be assess by testing the ability of the compounds are to inhibit endothelin-1 induced prostacyclin release from cultured bovine aortic endothelial cells.
A. Endothelin Binding Inhibition—Binding Test #1: Inhibition of Binding to ETA Receptors
TE 671 cells (ATCC Accession No. HTB 139) express ETA receptors. These cells were grown to confluence in T-175 flasks. Cells from multiple flasks were collected by scraping, pooled and centrifugedfor 10 min at 190×g. The cells were resuspended in phosphate buffered saline (PBS) containing 10 mM EDTA using a Tenbroeck homogenizer. The suspension was centrifuged at 4° C. at 57,800×g for 15 min, the pellet was resuspended in 5 ml of buffer A (5 mM HEPES buffer, pH 7.4 containing aprotinin (100 KIU/ml)) and then frozen and thawed once. 5 ml of Buffer B (5 mM HEPES Buffer, pH 7.4 containing 10 mM MnCl2 and 0.001% deoxyribonuclease Type 1) was added, the suspension mixed by inversion and then incubated at 37° C. for 30 minutes. The mixture was centrifuged at 57,800×g as described above, the pellet washed twice with buffer A and then resuspended in buffer C (30 mM HEPES buffer, pH 7.4 containing aprotinin (100 KIU/ml) to give a final protein concentration of 2 mg/ml and stored at −70° C. until use.
The membrane suspension was diluted with binding buffer (30 mM HEPES buffer, pH 7.4 containing 150 mM NaCl, 5 mM MgCl2, 0.5% Bacitracin) to a concentration of 8 μg/50 μl. ^125I-endothelin-1 (3,000 cpm, […]) was added to 50 μL of either: (A) endothelin-1 (for non specific binding) to give a final concentration 80 nM); (B) binding buffer (for total binding); or (C) a test compound (final concentration 1 nM to 100 μM). The membrane suspension (50 μL), containing up to 8 μg of membrane protein, was added to each of (A), (B), or (C). Mixtures were shaken, and incubated at 4° C. for 16-18 hours, and then centrifuged at 4° C. for 25 min at 2,500×g. Alternatively, the incubation was conducted at 24° C. […] This, must be kept in mind when comparing IC50 concentrations among compounds provided herein.
The supernatant, containing unbound radioactivity, was decanted and the pellet counted on a Genesys multiwell gamma counter. The degree of inhibition of binding (D) was calculated according to the following equation: [formula]
Each test was generally performed in triplicate.

[1] = Pharmacokinetic properties (oral availability, elimination half-life, Cmax); assay type: in vivo; conditions: for half-life: blood, read-out: t½ elim. (converted)
Excerpt: As used herein, bioavailability or oral availability refers to the rate and extent of absorption. Methods for determining bioavailability or oral availability are well known to those of skill in the art. For example, bioavailability or oral availability of any of the compounds described herein can be determined empirically by administration of the compound to an animal, followed by taking blood samples over time and measuring the blood concentration of the compound. In vivo half life (t1/2) is defined as the time it takes for the concentration of the compound in the blood to be reduced by one-half. Estimations of the area under the curve for intravenous administration can be used to estimate the area under the curve for oral administration, yielding bioavailability data. See, e.g., Milo Gibal (1991) Biopharmaceutics and Pharmacology, 4th edition (Lea and Sediger).

SMILES	ETA ACTIVITY (ETA antagonist activity relative to reference compound) (human ETA receptors)	half-life [1]	Cmax ([1]; in vivo)	Oral Availability ([1]; in vivo)	t½ elim. ([1]; in vivo)
CC(=O)c1cc(C)cc(C)c1NC(=O)c1sccc1S(=O)(=O)Nc1onc(C)c1C [Compound 7, N-(2-acetyl-4,6-dimethylphenyl)-3-{[(3,4 dimethyl-5-isoxazolyl)amino]sulfonyl}-2-thiophenecarboxamide]	18.1	6 h	157 µg/mL	148.1%	
Cc1cc(C)c(NC(=O)c2sccc2S(=O)(=O)Nc2onc(C)c2Cl)c(Cl)c1 [Compound 34, N-(2-chloro-4,6-dimethylphenyl)-3-{[(4-chloro-3-methyl-5-isoxazolyl)amino]sulfonyl}2-thiophenecarboxamide]	20.7	2.6 h	49.5 µg/mL		
Cc1cc(C)c(NC(=O)c2sccc2S(=O)(=O)Nc2onc(C)c2Cl)c(S(C)(=O)=O)c1 [Compound 42, 3-{[(4-chloro-3-methyl-5-isoxazolyl)amino]sulfonyl)-N-[2,4-dimethyl-6-(methylsulfonyl)phenyl]-2-thiophenecarboxamide]	64.1	1.5 h	10.3 µg/mL		
Cc1cc2c(cc1CC(=O)c1sccc1S(=O)(=O)Nc1onc(C)c1Cl)OCO2 [N-(4-chloro-3-methyl-5-isoxazolyl)-2-{[3,4-(methylenedioxy)-6-methylphenyl)acetyl]-thiophene-3-sulfonamide, reference compound]	1.0		133 µg/mL	43.6%	4.5 h
